Columns and labels:
[1] = system: DOCA-salt induced hypertension; details: rats; cited from earlier work
[2] = slurry of the anhydrous form in water; type: physicochemical; details: stirred at about 26-28° C. for ~3 days
Protocol: A slurry of anhydrous 4-(2-(4-(3-methoxybenzamido)-2-(1-methyl-1H-pyrazol-5-yl)phenoxy)ethyl)morpholin-4-ium chloride in water was stirred at ambient/stir plate temperature (about 26-28° C.) for ˜3 days.

thermal induced pain = details: rats, intraperitoneal administration; cited from earlier work
diabetic nephropathy = details: trial of 24 months of treatment; cited from earlier work
[3] = system: lower back pain, leg pain and numbness associated with sciatica; details: humans; cited from earlier work
inflammatory pain = details: rats, intrathecal or intraperitoneal administration; cited from earlier work
glaucoma patients = details: cited from earlier work
5-HT2A = 5-HT2A (Homo sapiens, UniProt P28223); details: cited from earlier work
Chain of 5-HT2A (P28223 whole entry, species assumed): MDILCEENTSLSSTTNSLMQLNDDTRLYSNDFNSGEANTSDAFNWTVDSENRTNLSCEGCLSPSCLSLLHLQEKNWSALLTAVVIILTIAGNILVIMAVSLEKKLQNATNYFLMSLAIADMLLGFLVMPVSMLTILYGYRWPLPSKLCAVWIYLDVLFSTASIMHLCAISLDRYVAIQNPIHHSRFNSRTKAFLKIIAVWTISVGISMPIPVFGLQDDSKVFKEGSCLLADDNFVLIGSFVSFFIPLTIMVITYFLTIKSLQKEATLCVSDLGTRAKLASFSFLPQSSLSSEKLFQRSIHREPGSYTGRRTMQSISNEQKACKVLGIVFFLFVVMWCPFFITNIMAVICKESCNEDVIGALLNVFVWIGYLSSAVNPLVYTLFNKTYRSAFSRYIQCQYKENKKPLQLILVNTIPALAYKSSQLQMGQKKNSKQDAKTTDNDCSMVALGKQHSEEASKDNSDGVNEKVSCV

JC virus = details: cited from earlier work
[4] = system: spontaneously hypertensive rats; details: cited from earlier work
heatstroke = details: in vivo; cited from earlier work

Compound: CN1CCN2c3ccccc3Cc3ccccc3C2C1 (centres unmarked) [Mainserin]
- DOCA-salt induced hypertension [1]: prevent

Compound: COc1cccc(C(=O)Nc2ccc(OCCN3CCOCC3)c(-c3ccnn3C)c2)c1.Cl [Example 1, 4-(2-(4-(3-Methoxybenzamido)-2-(1-methyl-1H-pyrazol-5-yl)phenoxy)ethyl)morpholin-4-ium chloride]
- solid form recovered after slurry in water [2]: anhydrous form was recovered

Compound: COc1cccc(CCc2ccccc2OCC(CN(C)C)OC(=O)CCC(=O)O)c1 (centres unmarked) [sarpogrelate]
- analgesic effect on thermal induced pain (thermal induced pain): significant analgesic effect
- urinary albumin excretion level (diabetic nephropathy): significantly reduced
- treatment for lower back pain, leg pain and numbness associated with sciatica brought on by lumbar disc herniation [3]: effective treatment
- analgesic effect on inflammatory pain (inflammatory pain): significant analgesic effect
- IOP (glaucoma patients): significantly lower

Compound: Cc1nc2sccn2c(=O)c1CCN1CCC(=C(c2ccc(F)cc2)c2ccc(F)cc2)CC1 [ritanserin]
- activity at 5-HT2A (5-HT2A): inverse agonist activity
- JC virus infection of human glial cells (JC virus): inhibited

Compound: O=C(c1ccc(F)cc1)C1CCN(CCn2c(=O)[nH]c3ccccc3c2=O)CC1 [ketanserin]
- blood pressure [4]: stabilize
- activity at 5-HT2A (5-HT2A): inverse agonist activity
- protection against circulatory shocks, intracranial hypertension, and cerebral ischemia during heatstroke (heatstroke): protect
- JC virus infection of human glial cells (JC virus): inhibited
- IOP (glaucoma patients): significantly lower

Source: patent US8980891B2, “Crystalline forms of certain 3-phenyl-pyrazole derivatives as modulators of the 5-HT2A serotonin receptor useful for the treatment of disorders related thereto” (Arena Pharmaceuticals, Inc., priority 2009, dated 2015)
